According to patent US20240117303A1, “METHODS AND COMPOSITIONS FOR GENERATING HUMAN MIDBRAIN DOPAMINERGIC NEURONS FROM NEURAL PROGENITOR CELLS” (Trailhead Biosystems Inc., priority 2022, published 2024):
“Also recorded” adds a separate entry of the source.

Experiments:
[1] = test system: stage 1 neural stem cells; experiment: HD-DoE 12-factor experiment for stage 2 recipe (first model, FIG. 5-7, 12); format: cell-based, human; conditions: for impact on expression of FOXA2 / impact on expression of LMX1A: dynamic profile / model, 12 effectors; for value of FOXA2 in absence of the factor: 10,000 with all factors; for value of LMX1A in absence of the factor: 30,000 with all factors
Description: To further guide the differentiation of midbrain-committed neural stem cells to neural progenitor cells at stage 2, we performed an additional HD-DoE experiment. We thereby obtained additional gene regulatory models that were used for preparation of differentiation protocol. The basis of this was a 12-factor HD-DoE experiment with focus on initiation of differentiation of cells toward midbrain neural progenitor cells for an additional 3 days after termination of stage 1 treatment. Here, we focused on expression of LMX1A and FOXA2 in neural progenitor cells with low to zero expression of GBX2. LMX1A had significant high expression level in the model with value of 47888. Therefore, we used optimization setting for this gene to identify the positive factors. The factors in this experiment included SC79, MK2206, ZM336372, PD0325901, CHIR99021, A 83-01, TTNPB, AGN193109, GW3965, SR9243, Purmorphamine and GSI-XX.
(§1) To assess the impact of elimination of each validated factor, we used dynamic profile analysis and compared the expression level of genes of interest in absence of each finalized factor while others are present.
(§2) In the stage 2 recipe, each of the six finalized factors were removed while the other five factors were present and the expression levels of FOXA2, LMX1A and GBX2 were assessed, compared to the levels in the presence of all factors. According to the first experiment model, the absence of TTNPB lead to a rise of GBX2 expression, while the value of FOXA2 and LMX1A reduced drastically from 10,000 to 0 and 30,000 to 15,000, respectively. The absence of A 83-01 reduced the expression of FOXA2 from 10,000 to 7000, however, as expected, the value of LMX1A increased from 30,000 to 40,000. […] According to the second experiment model, the absence of BMP7 and MK2206 both reduced the level of FOXA2 while increasing the value of LMX1A, with BMP7 as the main effector that led to 0 expression of FOXA2.

[2] = test system: stage 2 neural progenitors; experiment: HD-DoE 12-factor model for stage 3 recipe (FIG. 19-23, 29); format: cell-based, human
Description: To develop the neuronal differentiation recipes, the impact of various agonist and antagonists (effectors) on maturation of MB neural progenitors was investigated using the HD-DoE method described in Example 1. These effectors were chosen based on available literature on developmental biology, differentiation of stem cells as well as mouse and human single cell RNA-seq data from midbrain neurons at the time.
To engineer the recipe of stage 3 of differentiation, cells were first cultured in the stage 1 and stage 2 media as described herein, then they were treated with combinations of 8 or 12 factors for 3 days and the gene expression of cells in each condition was modeled. To guide the cells towards a subtype of midbrain dopaminergic neurons that reside in Substantia Nigra pars compacta (SNc) region of the brain, neural progenitors need to be SOX6^+ (Pereira et al. (2021) Cell Rep. 37:109975 Oosterveen et al. (2021) Stem Cell Reports 16:2718-2735 Poulin et al. (2020) Trends Neurosci. 43:155-169). CORIN, NGN2 and MSX1 are other markers involved in neurogenesis of dopaminergic neurons originating from floorplate region of developing midbrain (Wang et al. (2020) Cells 9:1489; Samata et al. (2016) Nat Commun. 7:13097; Ono et al. (2007) Development 134:3213-3225; Prakash et al. (2006) J. Physiol. 575:403410).
Therefore, we focused on maximizing expression of SOX6, CORIN, NGN2 and MSX1 in modeling experiments. One of the 12-factor models, the results of which are shown in FIG. 19, including LDN193189, AGN193109, BMP7, TTNPB, PD0325901, A8301, MHY1485, CHIR99021, XAV939, SANT-1, Purmorphamine and MK2206, provided a combination set that could maximize expression level of CORIN to more than 2000.
To assess the impact of elimination of each validated factor identified in Example 5 for the stage 3 and stage 4 recipes, we used dynamic profile analysis and compared the expression level of genes of interest in absence of each finalized factor while others are present.
In the stage 3 recipe, each of the finalized factors were removed in their respective models while other factors were present and the expression level of genes of interest was assessed compared to presence of all factors. When AGN193109 was excluded, level of all CORIN, KCNJ6, MSX1 and SOX6 decreased from 900 to 450, 50 to 35, 140 to 110 and 105 to 60, respectively. […] When PD0325901 was removed, expression levels of CORIN and KCNJ6 increased to 1200 and 70 while levels of MSX1 and SOX6 decreased to 105 and 20. In the absence of CHIR99021, the expression level of CORIN was again increased to 1200 while the level of KCNJ6 and MSX1 dropped to 50 and 115. […] Therefore, it was decided to include this compound in the final recipe. […] Therefore, CHIR99021 was also included in the final recipe.

[3] = test system: stage 1 neural stem cells; experiment: HD-DoE 12-factor experiment for stage 2 recipe (second model, FIG. 8-10, 13); format: cell-based, human; conditions: dynamic profile, 12 effectors
Method: To test additional factors like FGF8 that is routinely used in midbrain differentiation protocols, we ran another 12-factor experiment consisting of LDN193189, BMP7, A 83-01, Activin A, Takinib, PD0325901, MK2206, FGF8b, AZD3147, MHY1485, GSI-XX and Yhhu 3792. Similar to the previous experiment, hiPSCs were treated with stage 1 media for 3 days and then treated with 96 conditions of combinations of the factors for an additional 3 days. When this model was optimized for maximum expression of FOXA2, BMP7 with factor contribution of 13.7 and MK2206 with 14.2 had the most impact on its expression followed by AZD 3147 with factor contribution of 10.9.
as §1, §2

[4] = test system: human pluripotent stem cells; experiment: HD-DoE 13-factor experiment for stage 1 recipe, gene expression modeled after 3-day treatment; dynamic profile and factor criticality analysis; format: cell-based; conditions: for impact on expression of FOXA2 / impact on expression of OTX2: 13 effectors; for expression level of LMX1A in absence of the factor / expression level of FOXA2 in absence of the factor / expression level of DMBX1 in absence of the factor / expression level of OTX2 in absence of the factor: stage 1 recipe, other four factors present; for expression level of LMX1A in absence of the factor: 300 with all five factors; for expression level of FOXA2 in absence of the factor: 600 with all five factors; for expression level of DMBX1 in absence of the factor: 3000 with all five factors; for expression level of OTX2 in absence of the factor: 12000 with all five factors
Description: This example utilizes a method of High-Dimensional Design of Experiments (HD-DoE), as previously described in Bukys et al. (2020) Iscience 23:101346. The method employs computerized design geometries to simultaneously test multiple process inputs and offers mathematical modeling of a deep effector/response space. The method allows for finding combinatorial signaling inputs that control a complex process, such as during cell differentiation. It allows testing of multiple plausible critical process parameters, as such parameters impact output responses, such as gene expression. Because gene expression provides hallmark features of the phenotype of, for example, a human cell, the method can be applied to identify, and understand, which signaling pathways control cell fate. In the current example, the HD-DOE method was applied with the intent to find conditions for induction of midbrain neural progenitor-expressed genes, directly from the pluripotent stem cell state.
To develop the recipe for each stage, the impact of agonists and antagonists of multiple signaling pathways (referred to herein as “effectors”) on the expression of two sets of 53 pre-selected genes after a 3-day treatment was tested and modeled. These effectors are small molecules or proteins that are commonly used during stepwise differentiation of stem cells to specific fates. The choice of the effectors to test was based on current literature on neural induction in the midbrain region of the developing brain and differentiation of stem cells to neural progenitors.
To test the effectors, experiments with at least 8 factors were designed that can assess the response of cells to 48 or more different combinations of effectors in a range of concentrations. To analyze the models, we focused on expression of genes expressed in the midbrain region, including OTX2, DMBX1, FOXA2, LMX1A, and on the absence of GBX2, which is a hindbrain marker. The impact of each effector on gene expression level is defined by a parameter called factor contribution that is calculated for each effector during the modeling.
To identify the recipe of stage 1 of differentiation, cells were treated with various effectors for 3 days and the gene expression of cells was modeled. […] This model consisted of 13 factors including LDN193189, PD173074, BLU9931, Purmorphamine, SC79, MK2206, ZM336372, PD0325901, CHIR99021, XAV939, UCLA-gp130, Tofacitinib and GO 6983.
as §1
In the stage 1 recipe, each of the five finalized factors were removed while the other four factors were present and the expression levels of OTX2, DMBX1, FOXA2 and LMX1A was assessed compared to the levels in the presence of all five factors (FIG. 11A-B). […] Expression level of DMBX1 increased in absence of LDN193189, however values of OTX2, FOXA2 and LMX1A decreased.

[5] = model optimized for maximum expression of FOXA2, positive impact
[6] = stage 2 recipe, first experiment model
[7] = model optimized for LMX1A, positive impact
[8] = model maximizing expression of CORIN, positive regulatory impact
[9] = model optimized for MSX1, negative regulatory effect
[10] = model optimized for maximum expression of FOXA2, positive effect
[11] = Purmorphamine added to the original 4 effectors, dynamic profile
[12] = model maximizing expression of CORIN, negative impact
[13] = model optimized for SOX6, negative impact

Cc1cccc(-c2nn(C(=S)Nc3ccccc3)cc2-c2ccnc3ccccc23)n1 [A 83-01]
level of GBX2 ([1]; addition of A 83-01 at 300 nM, dynamic profile): ~0 | impact on expression of FOXA2 [1]: positive impacts | factor contribution [1, 5]: 6.7 | value of FOXA2 in absence of the factor [1, 6]: 7000 | value of LMX1A in absence of the factor [1, 6]: 40,000

Cc1ccc(C2=CCC(C)(C)c3ccc(C#Cc4ccc(C(=O)O)cc4)cc32)cc1 [AGN193109]
factor contribution [1, 7]: < 1 | impact on expression of KCNJ6 ([2]; dynamic profile, 12 effectors): positive impact | factor contribution [2, 8]: 20.3 | factor contribution ([2]; model optimized for maximum expression of KCNJ6, positive regulators): 17 | factor contribution ([2]; model optimized for maximum expression of SOX6, positive impact): 26.1 | expression level of KCNJ6 in absence of the factor ([2]; stage 3 recipe, other factors present, 50 with all factors): 35 | expression level of SOX6 in absence of the factor ([2]; stage 3 recipe, other factors present, 105 with all factors): 60 | expression level of MSX1 in absence of the factor ([2]; stage 3 recipe, other factors present, 140 with all factors): 110 | expression level of CORIN in absence of the factor ([2]; stage 3 recipe, other factors present, 900 with all factors): 450

C[C@H](NC(=O)Cc1cc(F)cc(F)c1)C(=O)N[C@@H]1C(=O)N(C)c2ccccc2-c2ccccc21 [GSI-XX]
impact on expression of FOXA2 [3]: did not make a meaningful positive change | impact on expression of LMX1A [3]: did not make a meaningful positive change

O=C(O)Cc1cccc(OCCCN(Cc2cccc(C(F)(F)F)c2Cl)CC(c2ccccc2)c2ccccc2)c1 [GW3965]
impact on expression of FOXA2 [1]: positive impact | impact on expression of LMX1A [1]: positive impact | factor contribution [1, 7]: 5.4 | value of FOXA2 in absence of the factor [1, 6]: 17,000 | value of LMX1A in absence of the factor [1, 6]: 10,000

c1ccc2c(-c3cnn4cc(-c5ccc(N6CCNCC6)cc5)cnc34)ccnc2c1 [LDN193189]
impact on expression level of MSX1 ([2]; dynamic profile, 12 effectors): high negative impact | factor contribution [2, 8]: high positive factor contributions | factor contribution [2, 9]: 19.9 | impact on expression of FOXA2 ([4]; dynamic profile): positive impact | impact on expression of OTX2 ([4]; dynamic profile): positive impact | factor contribution [4, 10]: 13.6 | factor contribution ([4]; model optimized for maximum expression of OTX2, positive impact, 3-day treatment): 11.9 | expression level of LMX1A in absence of the factor [4]: decreased | expression level of FOXA2 in absence of the factor [4]: decreased | expression level of DMBX1 in absence of the factor [4]: increased | expression level of OTX2 in absence of the factor [4]: decreased

c1ccc2c(Oc3nc(Nc4ccc(N5CCOCC5)cc4)c4ncn(C5CCCCC5)c4n3)cccc2c1 [Purmorphamine]
impact on expression of FOXA2 [1]: positive effect; also recorded: positive impact | factor contribution [1, 5]: 15.3 | factor contribution ([1]; negative effect on LMX1A expression levels): 26.2 | expression level of FOXA2 ([1]; without addition of Purmorphamine, dynamic profile): 5000 | impact on expression of DMBX1 ([4]; OTX2-optimized setting): did not have a positive impact | impact on expression of LMX1A ([4]; OTX2-optimized setting): did not have a positive impact | expression level of DMBX1 [4, 11]: 3000 | expression level of LMX1A [4, 11]: 450 | expression level of OTX2 [4, 11]: 11000 | impact on expression of FOXA2 ([4]; dynamic profile): positive impact | impact on expression of OTX2 ([4]; dynamic profile): did not have a positive impact | factor contribution [4, 10]: 22.2 | expression level of LMX1A in absence of the factor [4]: beneficial | expression level of FOXA2 in absence of the factor [4]: reduction | expression level of DMBX1 in absence of the factor [4]: beneficial | expression level of OTX2 in absence of the factor [4]: beneficial

Cc1nn(-c2ccccc2)c(C)c1/C=N/N1CCN(Cc2ccccc2)CC1 [SANT-1]
factor contribution [2, 12]: 9.9

CCOC(=O)C1=C(N)Oc2ccc(Cl)cc2C1C(C#N)C(=O)OCC (stereo not shown) [SC79]
factor contribution [1, 7]: 7.3

C/C(=C\c1ccc(C(=O)O)cc1)c1ccc2c(c1)C(C)(C)CCC2(C)C [TTNPB]
impact on expression of LMX1A [1]: positive impact | factor contribution [1, 7]: 19.5 | factor contribution [1, 5]: 10.7 | GBX2 expression in absence of the factor [1, 6]: rise | value of FOXA2 in absence of the factor [1, 6]: 0 | value of LMX1A in absence of the factor [1, 6]: 15,000 | factor contribution [2, 9]: 15.5 | factor contribution [2, 13]: 9.5

Oc1nc(-c2ccc(C(F)(F)F)cc2)nc2c1CSCC2 [XAV939]
factor contribution [2, 12]: 13.5 | factor contribution [2, 9]: 11.2 | factor contribution [2, 13]: 10.8
